The target of one experiment is T1, HiBit-BRM fusion protein (Homo sapiens, UniProt P51531).
T1 construct: expressed in transfected cells
As to the kind of experiment: HiBiT-BRM cell-based degradation assay (Nano-Glo HiBiT lytic detection, 24 h). Conditions: HeLa cell line expressing HiBiT-BRM; for DC50: read-out: BRM HiBit Degradation IC50. Summed up:
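Stable HeLa HiBiT-BRM cells treated 24 h with compounds (10-point 3-fold dilutions, 30 μM final top dose, duplicate). HiBiT levels read by Nano-Glo lytic luminescence; % degradation normalised to DMSO (high control) and 2 μM reference BRM/BRG1 degrader (low control).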
Background: The HiBiT peptide binds its large partner to form an active luciferase.

Experiment [1] has as its target T2, HiBit-BRG1 fusion protein (Homo sapiens, UniProt P51532).
T2 construct: expressed in transfected cells
Put plainly: HiBiT-BRG1 cell-based degradation assay (Nano-Glo HiBiT lytic detection, 24 h). Conditions: HeLa cell line expressing HiBit-BRG1 and LgBit; for Dmax: read-out: BRG1 HiBit Degradation Maximum (%); for DC50: read-out: BRMG1 HiBit Degradation IC50. Summed up:
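HeLa cells stably expressing HiBiT-BRG1 and LgBiT, 5000 per well, compound-treated 24 h, equilibrated 15 min at room temperature, then lysed with LgBiT-containing Nano-Glo HiBiT lytic reagent and luminescence read. % degradation normalised between DMSO (high control) and 2 μM reference BRM/BRG1 degrader (low control).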

These results are taken from patent publication US20250302832A1, “PYRAZINE DERIVATIVES AND USES THEREOF” (FOGHORN THERAPEUTICS INC., priority 2022, published 2025).

T2 sequence (P51532 whole entry, the tested form may be a part): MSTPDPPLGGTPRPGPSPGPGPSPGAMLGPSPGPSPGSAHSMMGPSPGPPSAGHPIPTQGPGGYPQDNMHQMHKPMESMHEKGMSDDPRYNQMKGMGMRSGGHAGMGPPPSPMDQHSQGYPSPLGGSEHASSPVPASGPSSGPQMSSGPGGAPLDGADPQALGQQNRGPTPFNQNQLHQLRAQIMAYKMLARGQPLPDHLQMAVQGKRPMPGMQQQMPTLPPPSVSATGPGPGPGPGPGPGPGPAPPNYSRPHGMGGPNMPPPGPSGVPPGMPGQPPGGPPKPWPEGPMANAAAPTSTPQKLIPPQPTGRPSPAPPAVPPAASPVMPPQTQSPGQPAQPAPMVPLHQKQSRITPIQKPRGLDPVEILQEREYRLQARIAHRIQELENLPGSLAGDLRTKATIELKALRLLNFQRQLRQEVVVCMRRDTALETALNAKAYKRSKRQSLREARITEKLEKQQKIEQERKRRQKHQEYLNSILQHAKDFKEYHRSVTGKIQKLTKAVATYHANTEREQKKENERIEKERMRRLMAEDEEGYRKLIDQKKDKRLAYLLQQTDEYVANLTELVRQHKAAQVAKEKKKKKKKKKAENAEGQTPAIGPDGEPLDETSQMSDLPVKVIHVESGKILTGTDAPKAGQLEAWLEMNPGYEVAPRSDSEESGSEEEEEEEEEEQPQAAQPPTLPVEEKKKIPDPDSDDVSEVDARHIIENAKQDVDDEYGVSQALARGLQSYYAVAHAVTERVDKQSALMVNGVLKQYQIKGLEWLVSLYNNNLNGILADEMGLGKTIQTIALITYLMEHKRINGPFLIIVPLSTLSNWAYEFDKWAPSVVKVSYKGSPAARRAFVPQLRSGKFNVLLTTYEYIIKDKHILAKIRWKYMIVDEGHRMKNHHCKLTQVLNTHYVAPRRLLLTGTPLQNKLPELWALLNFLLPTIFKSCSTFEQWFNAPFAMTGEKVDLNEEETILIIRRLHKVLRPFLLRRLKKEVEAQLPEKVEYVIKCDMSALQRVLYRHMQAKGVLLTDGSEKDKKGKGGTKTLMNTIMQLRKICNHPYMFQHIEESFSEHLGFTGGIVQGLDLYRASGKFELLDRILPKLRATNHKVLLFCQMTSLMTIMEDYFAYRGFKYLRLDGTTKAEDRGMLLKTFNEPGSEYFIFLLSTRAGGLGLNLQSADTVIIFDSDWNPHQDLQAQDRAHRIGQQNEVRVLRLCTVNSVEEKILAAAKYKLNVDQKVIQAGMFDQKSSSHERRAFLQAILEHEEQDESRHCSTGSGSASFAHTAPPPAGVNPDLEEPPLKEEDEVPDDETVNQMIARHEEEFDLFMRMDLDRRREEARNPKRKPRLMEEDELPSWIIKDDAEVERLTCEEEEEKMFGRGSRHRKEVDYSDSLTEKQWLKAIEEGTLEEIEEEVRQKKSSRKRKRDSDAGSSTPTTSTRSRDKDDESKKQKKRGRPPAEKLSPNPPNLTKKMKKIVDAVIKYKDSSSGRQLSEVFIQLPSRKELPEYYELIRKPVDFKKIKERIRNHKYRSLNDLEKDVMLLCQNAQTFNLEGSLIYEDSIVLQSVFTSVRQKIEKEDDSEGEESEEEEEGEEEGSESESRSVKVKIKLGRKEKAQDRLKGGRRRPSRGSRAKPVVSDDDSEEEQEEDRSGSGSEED
T1 sequence (P51531 whole entry, the tested form may be a part): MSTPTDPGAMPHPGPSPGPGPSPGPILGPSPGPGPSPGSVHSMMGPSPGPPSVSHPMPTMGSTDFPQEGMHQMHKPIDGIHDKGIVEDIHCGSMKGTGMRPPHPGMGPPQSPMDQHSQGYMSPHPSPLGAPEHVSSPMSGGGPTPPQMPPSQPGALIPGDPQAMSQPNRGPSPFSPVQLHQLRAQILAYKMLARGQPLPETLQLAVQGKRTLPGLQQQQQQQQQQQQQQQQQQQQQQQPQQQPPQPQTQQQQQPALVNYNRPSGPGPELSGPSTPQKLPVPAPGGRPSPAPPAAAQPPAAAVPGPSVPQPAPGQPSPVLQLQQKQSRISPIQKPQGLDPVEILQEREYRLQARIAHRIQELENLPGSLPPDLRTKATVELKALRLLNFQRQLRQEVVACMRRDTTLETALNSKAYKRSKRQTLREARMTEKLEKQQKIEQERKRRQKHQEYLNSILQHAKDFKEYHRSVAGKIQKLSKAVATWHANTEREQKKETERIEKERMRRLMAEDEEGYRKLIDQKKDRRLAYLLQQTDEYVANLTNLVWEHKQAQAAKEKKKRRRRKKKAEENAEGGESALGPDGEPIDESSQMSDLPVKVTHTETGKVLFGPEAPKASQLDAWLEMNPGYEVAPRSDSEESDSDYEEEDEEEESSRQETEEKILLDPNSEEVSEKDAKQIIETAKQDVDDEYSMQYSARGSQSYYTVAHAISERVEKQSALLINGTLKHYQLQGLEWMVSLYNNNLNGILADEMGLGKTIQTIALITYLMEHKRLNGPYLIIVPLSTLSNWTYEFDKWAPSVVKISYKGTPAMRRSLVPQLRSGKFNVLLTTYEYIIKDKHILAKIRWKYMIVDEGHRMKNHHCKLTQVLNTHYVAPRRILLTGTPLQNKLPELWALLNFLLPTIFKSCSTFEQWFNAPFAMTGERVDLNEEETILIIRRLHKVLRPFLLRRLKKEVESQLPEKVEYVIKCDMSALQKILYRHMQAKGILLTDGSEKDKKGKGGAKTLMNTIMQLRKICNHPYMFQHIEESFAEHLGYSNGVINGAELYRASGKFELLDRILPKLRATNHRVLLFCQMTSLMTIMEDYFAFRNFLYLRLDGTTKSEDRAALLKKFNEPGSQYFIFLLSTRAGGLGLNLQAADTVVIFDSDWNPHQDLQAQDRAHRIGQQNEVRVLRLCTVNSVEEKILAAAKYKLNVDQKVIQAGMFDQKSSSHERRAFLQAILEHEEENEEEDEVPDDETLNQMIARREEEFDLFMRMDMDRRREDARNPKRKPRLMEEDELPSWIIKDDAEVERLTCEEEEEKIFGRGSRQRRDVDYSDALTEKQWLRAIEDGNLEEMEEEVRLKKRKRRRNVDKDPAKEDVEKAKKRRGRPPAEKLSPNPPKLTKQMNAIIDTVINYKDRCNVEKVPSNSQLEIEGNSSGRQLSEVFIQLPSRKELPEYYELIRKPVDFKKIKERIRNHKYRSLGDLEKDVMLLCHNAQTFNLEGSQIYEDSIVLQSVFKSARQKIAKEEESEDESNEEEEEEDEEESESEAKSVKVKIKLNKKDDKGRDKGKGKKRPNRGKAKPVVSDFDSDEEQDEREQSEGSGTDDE

In the case of `Cc1ncsc1-c1ccc([C@H](C)NC(=O)[C@@H]2C[C@@H](O)CN2C(=O)[C@@H](c2cc(N3CC4(CC(c5cc6nnc(-c7ccccc7O)cc6n5C5CCC5)C4)C3)no2)C(C)C)cc1` [Compound 105, (2S,4R)-1-[(2R)-2-(3-{6-[5-cyclobutyl-3-(2-hydroxyphenyl)pyrrolo[3,2-c]pyridazin-6-yl]-2-azaspiro[3.3]heptan-2-yl}-1,2-oxazol-5-yl)-3-methylbutanoyl]-4-hydroxy-N-[(1S)-1-[4-(4-methyl-1,3-thiazol-5-yl)phenyl]ethyl]pyrrolidine-2-carb oxamide], on HiBit-BRM fusion protein, the “BRM HiBit Degradation Maximum (%)” value is “A (“A” indicates maximum degradation ≥75%)” and the DC50 was under 10 nM. For the same compound, the Dmax in experiment [1] is under 50%.
The like results for `Cc1ncsc1-c1ccc([C@H](C)NC(=O)[C@@H]2C[C@@H](O)CN2C(=O)[C@@H](c2cc(-c3cc(N4CC[C@@H](c5cc6nnc(-c7ccccc7O)cc6n5C5CC5)C4)ccn3)no2)C(C)C)cc1` (single isomer, unassigned) [Compound 91] were, in that order, “A (“A” indicates maximum degradation ≥75%)”, over 10 nM and under 50%.
Regarding `Cc1ncsc1-c1ccc([C@H](C)NC(=O)[C@@H]2C[C@@H](O)CN2C(=O)[C@@H](c2cc(OCCN3CCC(O)(c4cc5nnc(-c6ccccc6O)cc5n4C)CC3)no2)C(C)C)cc1` [Compound 30, (2S,4R)-4-hydroxy-1-[(2R)-2-[3-(2-{4-hydroxy-4-[3-(2-hydroxyphenyl)-5-methylpyrrolo[3,2-c]pyridazin-6-yl]piperidin-1-yl}ethoxy)-1,2-oxazol-5-yl]-3-methylbutanoyl]-N-[(1S)-1-[4-(4-methyl-1,3-thiazol-5-yl)phenyl]ethyl]pyrrolidine-2-carboxamide], at HiBit-BRM fusion protein, the “BRM HiBit Degradation Maximum (%)” value is given as “A (“A” indicates maximum degradation ≥75%)” and the DC50 is over 10 nM. In experiment [1], the Dmax is over 75% and the DC50 is over 100 nM.
For `Cc1ncsc1-c1ccc([C@H](C)NC(=O)[C@@H]2C[C@@H](O)CN2C(=O)[C@@H](c2cc(-c3ccnc(N4CC[C@@H](c5cc6nnc(-c7ccccc7O)cc6n5C5CC5)C4)c3)no2)C(C)C)cc1` [Compound 82, (2S,4R)-1-[(2R)-2-(3-{2-[(3R)-3-[5-cyclopropyl-3-(2-hydroxyphenyl)pyrrolo [3,2-c]pyridazin-6-yl]pyrrolidin-1-yl]pyridin-4-yl}-1,2-oxazol-5-yl)-3-methylbutanoyl]-4-hydroxy-N-[(1S)-1-[4-(4-methyl-1,3-thiazol-5-yl)phenyl]ethyl]pyrrolidine-2-carboxamide], at HiBit-BRM fusion protein, the “BRM HiBit Degradation Maximum (%)” value is recorded as “A (“A” indicates maximum degradation ≥75%)” and the DC50 was under 10 nM. Moreover, in experiment [1], the Dmax is over 50% and the DC50 is over 10 nM.
As for `Cc1ncsc1-c1ccc([C@H](C)NC(=O)[C@@H]2C[C@@H](O)CN2C(=O)[C@@H](c2cc(-c3ccnc(N4CC[C@H](c5cc6nnc(-c7ccccc7O)cc6n5C5CC5)C4)n3)no2)C(C)C)cc1` [Compound 41], on HiBit-BRM fusion protein, the “BRM HiBit Degradation Maximum (%)” value was “A (“A” indicates maximum degradation ≥75%)” and the DC50 was over 10 nM. Moreover, the Dmax in experiment [1] was under 50%.
For `Cc1ncsc1-c1ccc([C@H](C)NC(=O)[C@@H]2C[C@@H](O)CN2C(=O)[C@@H](c2cc(N3CCC4(CC[C@@H](c5cc6nnc(-c7ccccc7O)cc6n5C5CC5)C4)CC3)no2)C(C)C)cc1` [Compound 97, (2S,4R)-1-((R)-2-(3-((R)-2-(5-cyclopropyl-3-(2-hydroxyphenyl)-5H-pyrrolo[3,2-c]pyridazin-6-yl)-8-azaspiro[4.5]decan-8-yl)isoxazol-5-yl)-3-methylbutanoyl)-4-hydroxy-N-((S)-1-(4-(4-methylthiazol-5-yl)phenyl)ethyl)pyrrolidine-2-carboxamide] the same measures were “A (“A” indicates maximum degradation ≥75%)”, under 10 nM and under 50%.
As to `Cc1ncsc1-c1ccc([C@H](C)NC(=O)[C@@H]2C[C@@H](O)CN2C(=O)[C@@H](c2cc(OCCN3CC(c4cc5nnc(-c6ccccc6O)cc5n4C)C3)no2)C(C)C)cc1` [Compound 8, (2S,4R)-4-hydroxy-1-((R)-2-(3-(2-(3-(3-(2-hydroxyphenyl)-5-methyl-5H-pyrrolo[3,2-c]pyridazin-6-yl)azetidin-1-yl)ethoxy)isoxazol-5-yl)-3-methylbutanoyl)-N—((S)-1-(4-(4-methylthiazol-5-yl)phenyl)ethyl) pyrrolidine-2-carboxamide], on HiBit-BRM fusion protein, the “BRM HiBit Degradation Maximum (%)” value is “A (“A” indicates maximum degradation ≥75%)” and the DC50 is under 10 nM. For the same compound, in experiment [1], the Dmax was over 75% and the DC50 is over 10 nM.
As for `Cc1ncsc1-c1ccc([C@H](C)NC(=O)[C@@H]2C[C@@H](O)CN2C(=O)[C@@H](c2cc(N3CC4(CC(c5cc6nnc(-c7ccccc7O)cc6n5C5CC5)C4)C3)no2)C(C)C)cc1` [Compound 78, (2S,4R)-1-((R)-2-(3-(6-(5-cyclopropyl-3-(2-hydroxyphenyl)-5H-pyrrolo[3,2-c]pyridazin-6-yl)-2-azaspiro[3.3]heptan-2-yl)isoxazol-5-yl)-3-methylbutanoyl)-4-hydroxy-N-((S)-1-(4-(4-methylthiazol-5-yl)phenyl)ethyl)pyrrolidine-2-carboxamide], on HiBit-BRM fusion protein, the “BRM HiBit Degradation Maximum (%)” value is reported as “A (“A” indicates maximum degradation ≥75%)” and the DC50 is under 10 nM. In addition, in experiment [1], the Dmax was under 50%.
Regarding `Cc1ncsc1-c1ccc([C@H](C)NC(=O)[C@@H]2C[C@@H](O)CN2C(=O)[C@@H](c2cc(-c3cnc(N4CC[C@@H](c5cc6nnc(-c7ccccc7O)cc6n5CC5CC5)C4)nc3)no2)C(C)C)cc1` [Compound 114, (2S,4R)-1-((R)-2-(3-(2-((R)-3-(5-(cyclopropylmethyl)-3-(2-hydroxyphenyl)-5H-pyrrolo[3,2-c]pyridazin-6-yl)pyrrolidin-1-yl)pyrimidin-5-yl)isoxazol-5-yl)-3-methylbutanoyl)-4-hydroxy-N-((S)-1-(4-(4-methylthiazol-5-yl)phenyl)ethyl)pyrrolidine-2-carboxamide], at HiBit-BRM fusion protein, the “BRM HiBit Degradation Maximum (%)” value is reported as “A (“A” indicates maximum degradation ≥75%)” and the DC50 is under 10 nM. Further, in experiment [1], the Dmax was over 75% and the DC50 is over 10 nM.
Regarding `Cc1cc(-c2cc([C@H](C(=O)N3C[C@H](O)C[C@H]3C(=O)N[C@@H](C)c3ccc(-c4scnc4C)cc3)C(C)C)on2)cnc1N1CC[C@H](c2cc3nnc(-c4ccccc4O)cc3n2C2CC2)C1` (single isomer, unassigned) [Compound 110], on HiBit-BRM fusion protein, the “BRM HiBit Degradation Maximum (%)” value is recorded as “A (“A” indicates maximum degradation ≥75%)” and the DC50 was under 10 nM. The Dmax in experiment [1] was under 50%.
The like results for `Cc1ncsc1-c1ccc([C@H](C)NC(=O)[C@@H]2C[C@@H](O)CN2C(=O)[C@@H](C(C)C)n2cc(-c3cnc(N4CC[C@@H](c5cc6nnc(-c7ccccc7O)cc6n5C5CC5)C4)nc3)nn2)cc1` [Compound 72, (2S,4R)-1-((R)-2-(4-(2-((R)-3-(5-cyclopropyl-3-(2-hydroxyphenyl)-5H-pyrrolo[3,2-c]pyridazin-6-yl)pyrrolidin-1-yl)pyrimidin-5-yl)-1H-1,2,3-triazol-1-yl)-3-methylbutanoyl)-4-hydroxy-N-((S)-1-(4-(4-methylthiazol-5-yl)phenyl)ethyl)pyrrolidine-2-carboxamide] were, in that order, “A (“A” indicates maximum degradation ≥75%)”, under 10 nM and under 50%.
Regarding `Cc1ncsc1-c1ccc([C@H](C)NC(=O)[C@@H]2C[C@@H](O)CN2C(=O)[C@@H](c2cc(N3CCC(C(=O)N4CC(c5cc6nnc(-c7ccccc7O)cc6n5C)C4)CC3)no2)C(C)C)cc1` [Compound 13, (2S,4R)-4-hydroxy-1-[(2R)-2-[3-(4-{3-[3-(2-hydroxyphenyl)-5-methylpyrrolo[3,2-c]pyridazin-6-yl]azetidine-1-carbonyl}piperidin-1-yl)-1,2-oxazol-5-yl]-3-methylbutanoyl]-N-[(1S)-1-[4-(4-methyl-1,3-thiazol-5-yl)phenyl]ethyl]pyrrolidine-2-carboxamide], at HiBit-BRM fusion protein, the “BRM HiBit Degradation Maximum (%)” value is on record as “A (“A” indicates maximum degradation ≥75%)” and the DC50 is under 10 nM. Further, in experiment [1], the Dmax was over 50% and the DC50 is over 100 nM.
For `C#Cc1ccc(CNC(=O)[C@@H]2C[C@@H](O)CN2C(=O)C(c2cc(N3CC4(CC(c5cc6nnc(-c7ccccc7O)cc6n5C5CCC5)C4)C3)no2)C(C)C)cc1` (stereo partly drawn) [Compound 57, (2S,4R)-1-(2-(3-(6-(5-cyclobutyl-3-(2-hydroxyphenyl)-5H-pyrrolo[3,2-c]pyridazin-6-yl)-2-azaspiro[3.3]heptan-2-yl)isoxazol-5-yl)-3-methylbutanoyl)-N-(4-ethynylbenzyl)-4-hydroxypyrrolidine-2-carboxamide], at HiBit-BRM fusion protein, the “BRM HiBit Degradation Maximum (%)” value was “A (“A” indicates maximum degradation ≥75%)” and the DC50 was under 10 nM. In addition, the Dmax in experiment [1] was under 50%.
The like results for `CC(C)[C@@H](C(=O)N1C[C@H](O)C[C@H]1C(=O)N[C@@H](C)c1ccccc1)c1cc(-c2cnc(N3CC[C@H](c4cc5nnc(-c6ccccc6O)cc5n4C4CC4)C3)nc2)no1` [Compound 93, (2S,4R)-1-((R)-2-(3-(2-((S)-3-(5-cyclopropyl-3-(2-hydroxyphenyl)-5H-pyrrolo[3,2-c]pyridazin-6-yl)pyrrolidin-1-yl)pyrimidin-5-yl)isoxazol-5-yl)-3-methylbutanoyl)-4-hydroxy-N-((S)-1-phenylethyl)pyrrolidine-2-carboxamide] were, in that order, “A (“A” indicates maximum degradation ≥75%)”, under 10 nM and under 50%.
